Data published in patent US9359372B2, “Hexahydrodibenzo[a,g]quinolizine compound, preparation method thereof, pharmaceutical composition and use thereof” (SHANGHAI INSTITUTE OF MATERIA MEDICA, CHINESE ACADEMY OF …, priority 2011, dated 2016).

Tests used:
[1] = target: D2 dopamine receptor (Rattus norvegicus (Rat), UniProt P61169); assay: Affinity on dopamine D2 receptor, competition with [3H] Spiperone; type: binding; parameters: D2 receptor inhibition ratio (%): concentration or dose not given beside the values; conditions: for affinity on dopamine D2 receptor (in words): summary of the tables
Chain of D2 dopamine receptor (P61169 whole entry): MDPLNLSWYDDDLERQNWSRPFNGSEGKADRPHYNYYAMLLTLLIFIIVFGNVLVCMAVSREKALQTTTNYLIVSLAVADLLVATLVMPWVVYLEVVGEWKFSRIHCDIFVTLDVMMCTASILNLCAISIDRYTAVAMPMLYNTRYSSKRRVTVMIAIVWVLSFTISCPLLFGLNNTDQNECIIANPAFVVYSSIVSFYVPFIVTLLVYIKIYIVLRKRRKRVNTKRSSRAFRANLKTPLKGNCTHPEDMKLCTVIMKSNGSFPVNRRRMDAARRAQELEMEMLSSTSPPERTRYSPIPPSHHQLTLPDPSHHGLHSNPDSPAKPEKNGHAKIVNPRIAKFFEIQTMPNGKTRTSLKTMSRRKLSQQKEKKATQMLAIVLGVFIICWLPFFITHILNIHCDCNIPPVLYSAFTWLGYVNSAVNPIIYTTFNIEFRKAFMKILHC
Description: (§1) (1). Determination of the Affinity of Hexahydrodibenzo[a,g]Quinolizine Compound of General Formula I and Derivatives Thereof on Dopamine D1, Dopamine D2, 5-HT1A, and 5-HT2A Receptor.
(§2) 1) The Experimental Method
(§3) Different concentrations (10^−5 M-10^−11 M) of the compound of the invention and corresponding isotope receptor ligand as well as receptor protein were loaded into the reaction tube and incubated in 30° C. water bath for 60 minutes. The reaction was terminated in a refrigerator. The reaction mixture was put in a Millipore filter (millipore) cell sample collector, filtered through suction filtration using GF/C glass fiber filter paper, and dried. The resulting sample was placed into 0.5 mL tube. 500 μL liquid scintillation fluid was added and intensity of radioactivity was determined by counting.
(§4) (1) Construction of receptor and materials for cell culture: Escherichia coli. DH5α strain; insect virus transfer vector pVL1393 plasmid; BaculoGold linear Chinese baculovirus DNA, purchased from ParMingen company; mkD1RcDNA; rD2R cDNA; various restriction endonucleases, TaqDNA polymerase, T4 ligase, etc., LB medium; insect cell culture TNM-FH.
(§5) (2) the Experimental Materials for Receptor Binding
(§6) Firstly, the above […] are dissolved in DMSO and then diluted with double distilled water to the appropriate concentration (10^−5 M-10^−11 M).
(§7) (+) Butaclamo purchased from RBI company, GF/C glass fiber filter paper purchased from Whatman Co., scintillation fluid (dopamine D1, D2 receptors)/liposoluble scintillation fluid (5-HT1A, 5-HT2A receptor), Beckman LS-6500 multi-function liquid scintillation counter.

[2] = target: T1, dopamine D2 receptor (Homo sapiens (Human), UniProt P14416); assay: Inhibition property on dopamine D2 receptor, cAMP detection in CHO cells stably expressing D2 receptor; type: cell-based; conditions: 10 μM Forskoline and 10 μM dopamine, read-out: D2 receptor Antagonist IC50
T1 sequence (P14416 whole entry, species assumed): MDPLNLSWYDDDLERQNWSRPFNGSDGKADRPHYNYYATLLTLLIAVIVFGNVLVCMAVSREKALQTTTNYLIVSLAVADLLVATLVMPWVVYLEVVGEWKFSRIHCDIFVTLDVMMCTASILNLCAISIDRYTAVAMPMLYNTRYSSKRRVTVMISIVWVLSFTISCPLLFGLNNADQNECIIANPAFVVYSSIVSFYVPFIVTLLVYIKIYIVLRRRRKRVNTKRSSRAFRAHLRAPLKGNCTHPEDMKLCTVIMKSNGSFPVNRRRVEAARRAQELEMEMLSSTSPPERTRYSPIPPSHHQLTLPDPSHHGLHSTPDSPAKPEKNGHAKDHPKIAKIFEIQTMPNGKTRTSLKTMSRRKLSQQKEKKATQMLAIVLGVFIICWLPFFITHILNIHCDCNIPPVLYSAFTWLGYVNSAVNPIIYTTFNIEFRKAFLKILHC
Description: 2. Determination of the Inhibition Property of Hexahydrodibenzo[a,g]Quinolizine Compound of General Formula I and Derivatives Thereof on Dopamine D2 Receptor.
(1) The Experimental Method
Each medicament was dissolved in serum-free F12 culture medium containing 100 μM of IBMX. CHO cells which can stably express D2 receptor were pre-incubated at 37° C. for 10 min, and then 10 μM Forskoline and 10 μM Dopanie were added at the same time to react for 10 min. 100 μL, of pre-cooled 1 M of HClO4 was added and the reaction was terminated at 4° C. for 1 hour. 20 μL of 2 M K2CO3 was added to neutralize the reaction. […] A certain amount of the supernatant was taken for cAMP detection.

[3] = target: dopamine D1 receptor (Macaca mulatta (Rhesus macaque), UniProt O77680); assay: Affinity on dopamine D1 receptor, competition with [3H] SCH23390; type: binding; parameters: D1 receptor inhibition ratio (%): concentration or dose not given beside the values; conditions: for affinity on dopamine D1 receptor (in words): summary of the tables
Chain of dopamine D1 receptor (O77680 whole entry): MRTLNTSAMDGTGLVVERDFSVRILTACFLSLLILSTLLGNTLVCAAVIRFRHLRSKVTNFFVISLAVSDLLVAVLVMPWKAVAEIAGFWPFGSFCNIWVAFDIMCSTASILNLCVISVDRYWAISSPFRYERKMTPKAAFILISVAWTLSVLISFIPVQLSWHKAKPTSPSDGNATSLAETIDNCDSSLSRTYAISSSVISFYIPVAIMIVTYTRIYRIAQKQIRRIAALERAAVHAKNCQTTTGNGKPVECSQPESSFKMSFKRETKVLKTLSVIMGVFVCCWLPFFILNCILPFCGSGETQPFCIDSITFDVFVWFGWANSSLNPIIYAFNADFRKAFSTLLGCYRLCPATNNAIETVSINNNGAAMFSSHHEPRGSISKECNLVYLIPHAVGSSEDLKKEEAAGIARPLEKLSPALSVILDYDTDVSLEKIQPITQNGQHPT
Description: as §1, §2, §3, §4, §5, §6, §7

[4] = target: 5-HT1A receptor (Homo sapiens (Human), UniProt P08908); assay: Affinity on 5-HT1A receptor, competition with [3H] 8-OH-DPAT; type: binding
Chain of 5-HT1A receptor (P08908 whole entry): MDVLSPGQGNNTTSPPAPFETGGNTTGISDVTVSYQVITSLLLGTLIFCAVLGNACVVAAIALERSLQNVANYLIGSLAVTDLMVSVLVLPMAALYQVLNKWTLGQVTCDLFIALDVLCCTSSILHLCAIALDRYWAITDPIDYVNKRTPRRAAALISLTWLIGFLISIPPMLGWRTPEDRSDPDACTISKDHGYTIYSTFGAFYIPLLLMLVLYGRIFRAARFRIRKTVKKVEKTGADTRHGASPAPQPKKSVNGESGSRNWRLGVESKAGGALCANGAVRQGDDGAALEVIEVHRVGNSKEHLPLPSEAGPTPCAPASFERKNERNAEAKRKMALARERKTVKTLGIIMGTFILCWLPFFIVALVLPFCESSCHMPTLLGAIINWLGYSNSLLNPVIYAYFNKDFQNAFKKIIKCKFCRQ
Description: as §1, §2, §3, §5
8-OH-DPAT; 5-HT1A receptor protein expressed in HEK-293 cells;
as §6, §7

[5] = target: 5-HT2A receptor (Homo sapiens (Human), UniProt P28223); assay: Affinity on 5-HT2A receptor, competition with [3H]-Ketanserin; type: binding
Chain of 5-HT2A receptor (P28223 whole entry): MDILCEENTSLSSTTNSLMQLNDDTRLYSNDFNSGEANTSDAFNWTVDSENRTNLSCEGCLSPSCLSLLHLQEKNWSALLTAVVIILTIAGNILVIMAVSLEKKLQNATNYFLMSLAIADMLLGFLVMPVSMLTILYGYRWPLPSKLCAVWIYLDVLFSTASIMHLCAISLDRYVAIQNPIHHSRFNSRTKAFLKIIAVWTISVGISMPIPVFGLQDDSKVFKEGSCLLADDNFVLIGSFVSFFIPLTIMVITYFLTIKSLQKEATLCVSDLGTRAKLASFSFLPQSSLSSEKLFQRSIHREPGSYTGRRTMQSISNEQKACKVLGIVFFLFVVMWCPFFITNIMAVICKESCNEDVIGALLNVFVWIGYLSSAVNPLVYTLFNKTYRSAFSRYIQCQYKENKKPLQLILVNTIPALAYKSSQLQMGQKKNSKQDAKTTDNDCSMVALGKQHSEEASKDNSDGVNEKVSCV
Description: as §1, §2, §3, §5, §6, §7

[6] = target: D1 receptor (Homo sapiens (Human), UniProt P21728); assay: [35S]GTPγS binding assay for D1 receptor; type: biochemical
Chain of D1 receptor (P21728 whole entry): as the sequence (O77680 whole entry) above, with I311N counted along it

[7] = target: D1 dopamine receptors (Homo sapiens (Human), UniProt P21728); assay: Radioligand binding assay, D1 receptor, HEK293T membrane homogenates; conditions: HEK293T membranes, [3H]SCH23390
Chain of D1 dopamine receptors (P21728 whole entry): as the sequence (O77680 whole entry) above, with I311N counted along it
Description: (§8) The affinity of compounds to D1 and D2 dopamine receptors were determined by competition binding assays. Membrane homogenates of HEK293T cells were stably transfected with D1, or D2 receptors. […] The reaction was started by addition of membranes ([…]) and stopped by rapid filtration through Whatman GF/B glassfiber filter and subsequently washed with cold buffer (50 mM Tris, 5 mM EDTA, pH 7.4) using a Brandel 24-well cell harvester. Scintillation cocktail was added and the radioactivity was determined in a MicroBeta liquid scintillation counter. The IC50 and Ki values were calculated by nonlinear regression (PRISM, Graphpad, San Diego, Calif.) using a sigmoidal function.

[8] = target: T1, dopamine D2 receptor; assay: Radioligand binding assay, D2 receptor, HEK293T membrane homogenates; parameters: D2 Inhibition (%): concentration or dose not given beside the values; conditions: HEK293T membranes, [3H]Spiperone
Description: as §8

[9] = according to CN101037436; cited from earlier work

With `COc1cc2c(cc1OC)[C@@H]1Cc3c(OC)ccc(OC)c3CN1CC2` [DC037008, S-(−)-2,3,9,12-tetramethoxy-5,8,13,13a-tetrahydro-6H-dibenzo[a,g]quinolizine] the “D2 receptor inhibition ratio (%)” value [1] was 92.8%, the IC50 [1] was 1730 nM and the Ki [1] was 334 nM. For the same molecule, the IC50 [2] was 4030 nM, the “D1 receptor inhibition ratio (%)” value [3] was 101.0% and the IC50 [3] was 101 nM. The Ki [3] was 50.1 nM.
In the case of `COc1cc2c(cc1OC)[C@@H]1Cc3cc(C)cc(C)c3CN1CC2` [DC037017, S-(−)-2,3-bimethoxy-9,11-dimethyl-5,8,13,13a-tetrahydro-6H-dibenzo[a,g]quinolizine], the “D2 receptor inhibition ratio (%)” value [1] is reported as 97.4%, the IC50 [1] is reported as 1160 nM and the Ki [1] is reported as 224 nM. The IC50 [2] was 16200 nM, the “D1 receptor inhibition ratio (%)” value [3] was 94.5% and the IC50 [3] was 684 nM. It also gave a Ki [3] of 338 nM.
For `COc1cc2c(cc1O)[C@@H]1Cc3c(OC)ccc(OC)c3CN1CC2` [DC037030, S-(−)-2-hydroxy-3,9,12-trimethoxy-5,8,13,13a-tetrahydro-6H-dibenzo[a,g]quinolizine], the “5-HT1A receptor inhibition ratio (%)” value [4] was 80.41%, the IC50 [4] was 626 nM and the Ki [4] was 493 nM. For the same molecule, the “5-HT2A receptor inhibition ratio (%)” value [5] was 39.99%, the “D2 receptor inhibition ratio (%)” value [1] was 74.27% and the “affinity on dopamine D2 receptor (in words)” value [1] was “strong affinity”. The “D1 antagonist Imax %” value ([6]; [35S]GTPγS binding) was 86.8 ± 1.6%, the IC50 ([6]; [35S]GTPγS binding, read-out: D1 antagonist IC50) was 1900 ± 400 nM and the “D1 receptor antagonistic activity (in words)” value ([6]; summary of Table 10) was “D1 receptor antagonistic activity”. The “D1 receptor selectivity (in words)” value ([6]; summary of Table 10) was “good D1 receptor selectivity”, the Ki [7] was 3.7 ± 0.26 nM and the “D2 Inhibition (%)” value [8] was 74.27%. The “D1 receptor inhibition ratio (%)” value [3] was 99.89%, the IC50 [3] was 7.22 nM and the Ki [3] was 3.7 nM. For the same molecule, the “affinity on dopamine D1 receptor (in words)” value [3] was “strong affinity”.
In the case of `COc1ccc(OC)c2c1C[C@H]1c3cc4c(cc3CCN1C2)OCCO4` [DC037032], the “5-HT1A receptor inhibition ratio (%)” value [4] is reported as 95.36%, the IC50 [4] is reported as 51.5 nM and the Ki [4] is reported as 40.6 nM. The “5-HT2A receptor inhibition ratio (%)” value [5] was 37.75%, the “D2 receptor inhibition ratio (%)” value [1] was 28.67% and the “affinity on dopamine D2 receptor (in words)” value [1] was “strong affinity”. For the same molecule, the “D1 receptor inhibition ratio (%)” value [3] was 99.21%, the IC50 [3] was 49.2 nM and the Ki [3] was 25.2 nM. The “affinity on dopamine D1 receptor (in words)” value [3] was “strong affinity”.
In the case of `COc1cc2c(c(OC)c1)CN1CCc3cc(OC)c(OC)cc3[C@@H]1C2` [DC037075, (S)-2,3,9,11-tetramethoxy-5,8,13,13a-tetrahydro-6H-dibenzo[a,g]quinolizine], the “5-HT1A receptor inhibition ratio (%)” value [4] is reported as 90.77%, the IC50 [4] is reported as 922 nM and the Ki [4] is reported as 730 nM. For the same molecule, the “5-HT2A receptor inhibition ratio (%)” value [5] was 54.04%, the “D2 receptor inhibition ratio (%)” value [1] was 39.50% and the “D1 receptor inhibition ratio (%)” value [3] was 97.88%. It also gave an IC50 [3] of 114 nM and a Ki [3] of 64.1 nM.
In the case of `COc1cc(OC)c2c(c1CO)C[C@H]1c3cc4c(cc3CCN1C2)OCO4` [DC037077, (S)-2,3-methylenedioxy-9,11-bimethoxy-12-hydroxymethyl-5,8,13,13a-tetrahydro-6H-dibenzo[a,g]quinolizine], the “5-HT1A receptor inhibition ratio (%)” value [4] is reported as 88.63%, the IC50 [4] is reported as 758 nM and the Ki [4] is reported as 600 nM. For the same molecule, the “5-HT2A receptor inhibition ratio (%)” value [5] was 45.63%, the “D2 receptor inhibition ratio (%)” value [1] was 41.75% and the “D1 receptor inhibition ratio (%)” value [3] was 97.33%. The IC50 [3] was 324 nM and the Ki [3] was 182 nM.
For `COc1cc2c(cc1O)[C@@H]1Cc3ccc(O)c(OC)c3CN1CC2` [l-SPD, l-Stepholidine], the oral bioavailability [9] is listed as 6.83%.
